Measured values as given in patent US20100093811A1 (priority 2007, published 2010).
Like-named read-outs stand apart in the source and are kept apart here.

Tests used:
wild-type HIV-1 protease = wild-type HIV-1 protease (Human immunodeficiency virus type 1 group M subtype B, UniProt P04585); assay: Assay for inhibition of microbial expressed HIV protease; type: biochemical
Protocol: Assay for Inhibition of Microbial Expressed HIV Protease
Inhibition studies of the reaction of the protease (which was expressed in Eschericia coli) with a peptide substrate [Val-Ser-Gln-Asn-(betanapthyl)Ala-Pro-Ile-Val]. The inhibitor is first preincubated with the enzyme in assay buffer (50 mM sodium acetate, pH 5.5, 100 mM NaCl, and 0.1% BSA) for 30 minutes at room temperature. Substrate is added to 440 micromolar in a total volume of 80 microliters containing 5 picomolar HIV-1 protease, and the reaction is incubated for 1 hour at 30° C. The reaction is quenched by addition of 120 microliters of 10% phosphoric acid, and product formation is determined after separation of product and substrate on a Vydac C18 column connected to an Alliance high performance liquid chromatography system (Waters Corporation). The extent of inhibition of the reaction is determined from the peak area of the products.

[1] = test system: acute HIV infection of T-lymphoid cells; assay: Assay for inhibition of HIV replication (spread assay); type: cell-based, HIV-1; settings: Human immunodeficiency virus 1, T-lymphoid; read-out: Spread - IC95
Protocol: • Assay for Inhibition of HIV Replication
Assays for the inhibition of acute HIV infection of T-lymphoid cells were conducted in accordance with Vacca, J. P. et al., Proc. Natl. Acad. Sci. USA 1994, 91: 4096.

[2] = wild-type HIV-1 protease expressed in E. coli, peptide substrate, pH 5.5, read-out: Enzyme Inhibition - IC50

| SMILES | IC50 (wild-type HIV-1 protease; [2]) | IC95 [1] | IC50 (wild-type HIV-1 protease) |
| --- | --- | --- | --- |
| CC[C@@H](CCC[C@@H](CO)N(CCC(C)C)S(=O)(=O)c1ccc(N)cc1)NC(=O)[C@@H](N)C(c1ccccc1)c1ccccc1 [Example F13, N-{(1S,5S)-5-[[(4-aminophenyl)sulfonyl](3-methylbutyl)amino]-1-ethyl-6-hydroxyhexyl}-β-phenyl-L-phenylalaninamide] | 0.01 nM | 15 nM |  |
| COC(=O)N[C@H](C(=O)N[C@H](CCC[C@@H](CO)N(C(C)C)S(=O)(=O)c1ccc(N)cc1)C(C)C)C(c1ccccc1)c1ccccc1 [Example F14, N-{(1R,5S)-5-[[(4-aminophenyl)sulfonyl](isopropyl)amino]-6-hydroxy-1-isopropylhexyl}-Nα-(methoxycarbonyl)-β-phenyl-L-phenylalaninamide] | 1.76 nM | 148 nM |  |
| COC(=O)N[C@H](C(=O)N[C@@H](C)CCC[C@@H](CO)N(C(C)C)S(=O)(=O)c1ccc(N)cc1)C(c1cccc(F)c1)c1cccc(F)c1 [Example F15, N-{(1S,5S)-5-[[(4-aminophenyl)sulfonyl](isopropyl)amino]-6-hydroxy-1-methylhexyl}-3-fluoro-β-(3-fluorophenyl)-Nα-(methoxycarbonyl)-L-phenylalaninamide] | 0.01 nM | 16 nM |  |
| COC(=O)N[C@@H](Cc1cccc(Cl)c1Cl)C(=O)N[C@@H](C)CCC[C@@H](CO)N(C(C)C)S(=O)(=O)c1ccc(N)cc1 [Example F16, N-{(1S,5S)-5-[[(4-aminophenyl)sulfonyl](isopropyl)amino]-6-hydroxy-1-methylhexyl}-2,3-dichloro-Nα-(methoxycarbonyl)-L-phenylalaninamide] |  | 58 nM | 0.128 nM |
| CCCN([C@H](CO)CCC[C@H](C)NC(=O)[C@@H](NC(=O)OC)C(c1cccc(F)c1)c1cccc(F)c1)S(=O)(=O)c1ccc(N)cc1 [Example F17, N-{(1S,5S)-5-[[(4-aminophenyl)sulfonyl](propyl)amino]-6-hydroxy-1-methylhexyl}-3-fluoro-β-(3-fluorophenyl)-Nα-(methoxycarbonyl)-L-phenylalaninamide] | 0.01 nM | 18 nM |  |
| CCN([C@H](CO)CCC[C@H](C)NC(=O)[C@@H](NC(=O)OC)C(c1ccccc1)c1ccccc1)S(=O)(=O)c1ccc(CO)cc1 [Example G1, N-[(1S,5S)-5-(ethyl{[4-(hydroxymethyl)phenyl]sulfonyl}amino)-6-hydroxy-1-methylhexyl]-Nα-(methoxycarbonyl)-β-phenyl-L-phenylalaninamide] | 0.05 nM | 37 nM |  |
| COC(=O)N[C@@H](Cc1ccccc1Cl)C(=O)N[C@@H](C)CCC[C@@H](CO)N(CC(C)C)S(=O)(=O)c1ccc(CO)cc1 [Example G2, 2-chloro-N-{(1S,5S)-6-hydroxy-5-[{[4-(hydroxymethyl)phenyl]sulfonyl}(isobutyl)amino]-1-methylhexyl}-Nα-(methoxycarbonyl)-L-phenylalaninamide] | 0.082 nM | 14 nM |  |
| COC(=O)N[C@H](C(=O)N[C@H](CCC[C@@H](CO)N(CCC(C)C)S(=O)(=O)c1ccc2ncsc2c1)C1CC1)C(c1ccccc1)c1ccccc1 [Example G3, N-{(1R,5S)-5-[(1,3-benzothiazol-6-ylsulfonyl)(3-metbylbutyl)amino]-1-cyclopropyl-6-hydroxyhexyl}-Nα-(methoxycarbonyl)-β-phenyl-L-phenylalaninamide] | 0.158 nM | 44 nM |  |
| COC(=O)N[C@H](C(=O)N[C@@H](C)CCC[C@@H](CO)N(C)S(=O)(=O)c1ccc(N)cc1)C(c1ccccc1)c1ccccc1 [Example G4, N-{(1S,5S)-5-[[(4-aminophenyl)sulfonyl](methyl)amino]-6-hydroxy-1-methylhexyl}-Nα-(metboxycarbonyl)-β-phenyl-L-phenylalaninamide] | 0.405 nM | 41 nM |  |
| CCN([C@H](CO)CCC[C@H](C)NC(=O)[C@@H](NC(=O)OC)C(c1ccccc1)c1ccccc1)S(=O)(=O)c1ccc(N)cc1 [Example G5, N-{(1S,5S)-5-[[(4-aminophenyl)sulfonyl](ethyl)amino]-6-hydroxy-1-methylhexyl}-Nα-(methoxycarbonyl)-β-phenyl-L-phenylalaninamide] | 0.378 nM | 64 nM |  |
| COC(=O)N[C@H](C(=O)N[C@@H](C)CCC[C@@H](CO)N(C)S(=O)(=O)c1ccc(CO)cc1)C(c1ccccc1)c1ccccc1 [Example G6, N-{(1S,5S)-6-hydroxy-5-[{[4-(hydroxymethyl)phenyl]sulfonyl}(methyl)amino]-1-methylhexyl}-Nα-(methoxycarbonyl)-β-phenyl-L-phenylalaninamide] | 0.376 nM | 161 nM |  |
| COC(=O)N[C@H](C(=O)N[C@@H](C)CCC[C@@H](CO)N(CC1CC1)S(=O)(=O)c1ccc(N)cc1)C(c1ccccc1)c1ccccc1 [Example G7, N-{(1S,5S)-5-[[(4-aminophenyl)sulfonyl](cyclopropylmethyl)amino]-6-hydroxy-1-methylhexyl}-Nα-(methoxycarbonyl)-β-phenyl-L-phenylalaninamide] | 0.024 nM | 15 nM |  |
| COC(=O)N[C@@H](Cc1ccccc1Cl)C(=O)N[C@@H](C)CCC[C@@H](CO)N(C)S(=O)(=O)c1ccc(CO)cc1 [Example G8, 2-chloro-N-{(1S,5S)-6-hydroxy-5-[{[4-(hydroxymethyl)phenyl]sulfonyl}(methyl)amino]-1-methylhexyl}-Nα-(methoxycarbonyl)-L-phenylalaninamide] | 3.2 nM | 191 nM |  |
| CCN([C@H](CO)CCC[C@H](C)NC(=O)[C@H](Cc1ccccc1Cl)NC(=O)OC)S(=O)(=O)c1ccc(CO)cc1 [Example G9, 2-chloro-N-[(1S,5S)-5-(ethyl{[4-(hydroxymethyl)phenyl]sulfonyl}amino)-6-hydroxy-1-methylhexyl]-Nα-(methoxycarbonyl)-L-phenylalaninamide] | 0.629 nM | 102 nM |  |
| COC(=O)N[C@@H](Cc1ccccc1Cl)C(=O)N[C@@H](C)CCC[C@@H](CO)N(C(C)C)S(=O)(=O)c1ccc(CO)cc1 [Example G10, 2-chloro-N-{(1S,5S)-6-hydroxy-5-[{[4-(hydroxymethyl)phenyl]sulfonyl}(isopropyl)amino]-1-methylhexyl}-Nα-(methoxycarbonyl)-L-phenylalaninamide] | 0.389 nM | 49 nM |  |
| COC(=O)N[C@@H](Cc1ccccc1Cl)C(=O)N[C@@H](C)CCC[C@@H](CO)N(C(C)C)S(=O)(=O)c1ccc(N)cc1 [Example G11, N-{(1S,5S)-5-[[(4-aminophenyl)sulfonyl](isopropyl)amino]-6-hydroxy-1-methylhexyl}-2-chloro-Nα-(methoxycarbonyl)-L-phenylalaninamide] | 1.3 nM | 93 nM |  |
| COC(=O)N[C@@H](Cc1ccccc1Br)C(=O)N[C@@H](C)CCC[C@@H](CO)N(CC(C)C)S(=O)(=O)c1ccc(CO)cc1 [Example G12, 2-bromo-N-{(1S,5S)-6-hydroxy-5-[{[4-(hydroxymethyl)phenyl]sulfonyl}(isobutyl)amino]-1-methylhexyl}-Nα-(methoxycarbonyl)-L-phenylalaninamide] | 0.055 nM | 15 nM |  |
| COC(=O)N[C@@H](Cc1ccccc1Br)C(=O)N[C@@H](C)CCC[C@@H](CO)N(C(C)C)S(=O)(=O)c1ccc(CO)cc1 [Example G13, 2-bromo-N-{(1S,5S)-6-hydroxy-5-[{[4-(hydroxymethyl)phenyl]sulfonyl}(isopropyl)amino]-1-methylhexyl}-Nα-(methoxycarbonyl)-L-phenylalaninamide] | 0.291 nM | 71 nM |  |
| COC(=O)N[C@H](C(=O)N[C@@H](C)CCC[C@@H](CO)N(CCCF)S(=O)(=O)c1ccc(CO)cc1)C(c1ccccc1)c1ccccc1 [Example G14, N-[(1S,5S)-5-((3-fluoropropyl){[4-(hydroxymethyl)phenyl]sulfonyl}amino)-6-hydroxy-1-methythexyl]-Nα-(methoxycarbonyl)-β-phenyl-L-phenylalaninamide] | 0.01 nM | 16 nM |  |
| COC(=O)N[C@@H](Cc1ccccc1Br)C(=O)N[C@@H](C)CCC[C@@H](CO)N(C(C)C)S(=O)(=O)c1ccc(N)cc1 [Example G15, N-{(1S,SS)-5-[[(4-aminophenyl)sulfonyl](isopropyl)amino]-6-hydroxy-1-methylhexyl}-2-bromo-Nα-(methoxycarbonyl)-L-phenylalaninamide] | 0.584 nM | 77 nM |  |
| COC(=O)N[C@H](C(=O)N[C@@H](C)CCC[C@@H](CO)N(CC(C)C)S(=O)(=O)c1ccc(CO)cc1)C(c1ccccc1)c1ccccc1 [Example G16, N-{(1S,5S)-6-hydroxy-5-[{[4-(hydroxymethyl)phenyl]sulfonyl}(isobutyl)amino]-1-methylhexyl}-Nα-(methoxycarbonyl)-β-phenyl-L-phenylalaninamide] | 0.01 nM | 8 nM |  |
| COC(=O)N[C@H](C(=O)N[C@@H](C)CCC[C@@H](CO)N(C1CCC1)S(=O)(=O)c1ccc(CO)cc1)C(c1ccccc1)c1ccccc1 [Example G17, N-[(1S,5S)-5-(cyclobutyl{[4-(hydroxymethyl)phenyl]sulfonyl}amino)-6-hydroxy-1-methylhexyl]-Nα-(methoxycarbonyl)-β-phenyl-L-phenylalaninamide] | 0.077 nM | 137 nM |  |
